From patent US20200172631A1, “ERBB2/HER2 MUTATIONS IN THE TRANSMEMBRANE OR JUXTAMEMBRANE DOMAIN” (GENENTECH, INC., priority 2017, published 2020)

System: TM/JM Her2 mutants expressed in BaF3 cells
Assay: BaF3 cell viability assay, all Her2 TM/JM mutants tested
Type: cell-based, human
Details: BaF3 system, all Her2 TM/JM mutants tested (FIG. 7)
Method: BaF3 cells were maintained in RPMI 1640 supplemented with 10% (v/v) fetal bovine serum (Thermo Fisher Scientific, IL), 2 mM L-glutamine, 100 U/ml penicillin, 100 mg/ml streptomycin (complete RPMI) and 2 ng/mL mouse IL-3.
BaF3 cells were cultured in complete RPMI media supplemented with recombinant murine IL-3 (mIL-3) and puromycin (1 μg/ml).
BaF3 cells survival assay was performed as described previously (Jaiswal et al., 2011). Briefly, stable cells expressing Her2 WT or mutants were washed twice times with 1× PBS and plated in 96-well plates (10,000 cells/well) in replicates of 12 in complete RPMI medium without IL-3. Cell viability was measured using the Cell Titer Glo Luminescence Cell Viability Kit (Promega, CA), and plates were read on a Synergy 2 (Biotek Instruments) luminescence plate reader. Relative survival reported was calculated as a ratio of relative luciferase activity (RLU) at day 4 over RLU measured at the day 0. The mutant Her2 constructs were tested in BaF3 either alone or in the presence of WT Flag tagged Her2 as indicated.
Viable cell number was assessed 4 days after treatment using Cell Titer-Glo Luminescent cell viability assay kit (Promega, WI). Non-linear regression plot of antibodies and their fractions or inhibitors were generated and calculation of IC50 was performed using GraphPad Prism 5.00 (GraphPad Software, CA). […]

Compound	response of Her2 TM/JM mutants to ERBB2 kinase inhibitory small molecule drugs, effect on cell survival
CS(=O)(=O)CCNCc1ccc(-c2ccc3ncnc(Nc4ccc(OCc5cccc(F)c5)c(Cl)c4)c3c2)o1 [lapatinib]	respond
CCOc1cc2ncc(C#N)c(Nc3ccc(OCc4ccccn4)c(Cl)c3)c2cc1NC(=O)/C=C/CN(C)C [neratinib]	respond
